Laboratory results published in patent publication US7910582B2, “Cyclopropyl amines as modulators of the histamine H3 receptor” (Janssen Pharmaceutica NV, priority 2005, dated 2011).
Structures can show the parent of a compound that is named as a salt. Where two headings read alike, the source gives them in different places.

Experiments:
[1] = biological target: T1, Human H3 Receptor (Homo sapiens, UniProt Q9Y5N1); experiment: Cyclic AMP accumulation, SK-N-MC cells with reporter construct and human H3 receptor (pA2); format: cell-based; conditions: pA2, average of results
T1 construct: expressed in transfected cells
T1 sequence (Q9Y5N1 whole entry): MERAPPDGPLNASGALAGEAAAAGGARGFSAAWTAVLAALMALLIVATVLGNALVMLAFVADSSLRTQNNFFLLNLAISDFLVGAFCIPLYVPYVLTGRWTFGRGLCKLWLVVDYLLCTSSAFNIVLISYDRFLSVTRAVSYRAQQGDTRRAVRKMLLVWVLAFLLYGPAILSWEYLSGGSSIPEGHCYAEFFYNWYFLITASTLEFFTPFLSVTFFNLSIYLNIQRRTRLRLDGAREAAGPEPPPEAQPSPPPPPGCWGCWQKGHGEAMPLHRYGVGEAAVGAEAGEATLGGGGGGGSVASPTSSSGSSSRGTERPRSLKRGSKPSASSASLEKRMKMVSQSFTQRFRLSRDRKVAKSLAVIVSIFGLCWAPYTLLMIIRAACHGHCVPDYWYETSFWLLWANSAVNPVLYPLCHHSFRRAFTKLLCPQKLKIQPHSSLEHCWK
Method: Cells were grown to about 70% to 80% confluence and removed from the plate with trypsin and pelleted in a clinical centrifuge. […] One μg supercoiled H3 receptor cDNA was added to the cells and mixed gently. The voltage for the electroporation was set at 0.25 kV and the capacitance was set at 960 μF. After electroporation the cells were diluted with 10 mL of complete media and were plated onto four 10 cm dishes at the following ratios: 1:20, 1:10, 1:5, and 1:2. […] Colonies that survived selection were grown and tested. SK-N-MC cells were used because they give efficient coupling for inhibition of adenylate cyclase. The clones that gave the most robust inhibition of adenylate cyclase in response to histamine were used for further study.
Sublines of SK-N-MC cells were created that expressed a reporter construct and the human H3 receptor.

[2] = Pharmacokinetics and bioanalysis in the rat; format: in vivo, male Sprague Dawley Rats; conditions: for half-life (T1/2) relative to the comparative examples / volume of distribution (Vd) relative to the comparative examples: compared with isopropyl / cyclobutyl analogs
Method: One group of six male Sprague Dawley Rats (approx. 300 g body weight; three animals per time point) was used. They were group-housed, provided food and water ad libitum, and were maintained on a 12-h light and dark cycle. Animals were acclimatized for at least 7 days after receipt from the vendor prior to investigations.
For oral dosing, test compounds were formulated at 1 mg/mL in 0.5% hydroxypropyl methyl cellulose and delivered at a dose of 10 mg/kg. Citric acid salt forms (prepared as described for Example 1B) of the test compounds were used. Animals received a bolus dose of 10 mg/kg (10 mL/kg) for each compound via a 16 gauge intragastric gavage. For intravenous dosing, test compounds were formulated at 1 mg/mL in 5% dextrose in water and dosed at 1 mg/kg (1 mL/kg) with a bolus intravenous dose via a 24-gauge Terumo® Surflo® catheter in the lateral tail vein. All dosing solutions were prepared immediately prior to injection.
Blood samples (250 μL) were taken from the lateral tail vein into heparinized Natelson blood collection tubes and expelled into 1.5 mL mcirocentrifuge tubes. The blood samples were centrifuged for 5 min at 14,000 rpm in a micro-centrifuge. Plasma was retained and kept in a −20° C. freezer until analysis by LC-MS/MS.
Data analysis was performed using WinNonlin version 3.3 or 4.0.1. A non -compartmental model (#200 for Extravascular administration and #201 for i.v.) was used to determine the pharmacokinetic parameters shown in Tables 4 and 5 (NA=not applicable or not determined).

[3] = biological target: T1, Human H3 Receptor; experiment: [3H]-N-Methylhistamine binding, membranes of H3 receptor-expressing SK-N-MC cells; conditions: 0.8 nM [3H]-N-methylhistamine, 60 min at 25° C., average of results
Method: Cells were grown to about 70% to 80% confluence and removed from the plate with trypsin and pelleted in a clinical centrifuge. The pellet was then re-suspended in 400 μL of complete media and transferred to an electroporation cuvette with a 0.4 cm gap between the electrodes (Bio-Rad #165-2088). One μg supercoiled H3 receptor cDNA was added to the cells and mixed gently. The voltage for the electroporation was set at 0.25 kV and the capacitance was set at 960 μF. After electroporation the cells were diluted with 10 mL of complete media and were plated onto four 10 cm dishes at the following ratios: 1:20, 1:10, 1:5, and 1:2. The cells were allowed to recover for 24 h before adding 600 μg G-418. Colonies that survived selection were grown and tested. SK-N-MC cells were used because they give efficient coupling for inhibition of adenylate cyclase. The clones that gave the most robust inhibition of adenylate cyclase in response to histamine were used for further study.
Cell pellets from histamine H3 receptor-expressing SK-N-MC cells were homogenized in 50 mM TrisHCl/0.5 mM EDTA. Supernatants from an 800 g spin were collected and were recentrifuged at 30,000 g for 30 min. Pellets were re-homogenized in 50 mM Tris/5 mM EDTA (pH 7.4). Membranes were incubated with 0.8 nM [^3H]-N-methylhistamine plus/minus test compounds for 60 min at 25° C. and were harvested by rapid filtration over GF/C glass fiber filters (pretreated with 0.3% polyethylenimine) followed by four washes with buffer. Filters were added to 5 mL of scintillation cocktail, and the signal was then counted on a liquid scintillation counter.

[4] = male, Sprague Dawley, iv, i.v. 1 mg/kg, citric acid salt, plasma
[5] = male, Sprague Dawley, iv, i.v. 1 mg/kg, citric acid salt, plasma, read-out: AUCINF
[6] = male, Sprague Dawley, oral 10 mg/kg, citric acid salt, plasma
[7] = male, Sprague Dawley, oral 10 mg/kg, citric acid salt, plasma, read-out: AUCINF
[8] = male, Sprague Dawley, plasma, iv, i.v. 1 mg/kg, citric acid salt, read-out: Vd
[9] = oral 10 mg/kg, citric acid salt
[10] = male, Sprague Dawley, iv, i.v. 1 mg/kg, citric acid salt, plasma, read-out: AUCINF (h-μmol/mL)
[11] = male, Sprague Dawley, oral 10 mg/kg, citric acid salt, plasma, read-out: AUCINF (h-μmol/mL)

| Structure (SMILES) | CI ([2]; i.v. 1 mg/kg, citric acid salt) [mL/min/kg] | Cmax [2, 4] | Cmax [2, 6] | Tmax [2, 6] [h] | half-life [2, 6] [h] | Vd [2, 8] [L/kg] | Ki ([3]; read-out: Ki) [nM] | half-life [2, 4] [h] | AUC(0-inf) [2, 10] [µM·h] | AUC(0-inf) [2, 11] [µM·h] | also measured |
| --- | --- | --- | --- | --- | --- | --- | --- | --- | --- | --- | --- |
| CC(C)N1CCN(C(=O)c2ccc(CN3CCOCC3)cc2)CC1 [Comparative Example 1, (4-Isopropyl-piperazin-1-yl)-(4-morpholin-4-ylmethyl-phenyl) -methanone] | – | – | – | – | – | – | – | – | – | – | Kb [1]: 1 nM |
| CC(C)N1CCN(C(=O)c2ccc(CN3CCOCC3)cc2)CC1 [Comparative Example 1A, (4-Isopropyl-piperazin-1-yl)-(4-morpholin-4-ylmethyl-phenyl) -methanone dihydrochloride] | – | – | – | – | – | – | – | – | – | – | Kb [1]: 1.26 nM |
| CC(C)N1CCN(C(=O)c2ccc(CN3CCOCC3)cc2)CC1.O=C(O)CC(O)(CC(=O)O)C(=O)O [Comparative Example 1B, (4-Isopropyl-piperazin-1-yl)-(4-morpholin-4-ylmethyl-phenyl) -methanone citrate salt] | 12.8 | 4110 ng/mL | 1050 ng/mL | 1.5 | 4.71 | 3.55 | – | – | – | – | T1/2 ([2]; i.v. 1 mg/kg, citric acid salt, plasma): 3.2 h; AUC(0-inf) [2, 5]: 1560 ng·h/mL; AUC(0-inf) [2, 7]: 9740 ng·h/mL; CI [2, 9]: 17.1 mL/min/kg; Vd [2, 9]: 6.98 L/kg |
| O=C(c1ccc(CN2CCOCC2)cc1)N1CCN(C2CCC2)CC1 [Comparative Example 2A, (4-Cyclobutyl-piperazin-1-yl)-(4-morpholin-4-ylmethyl-phenyl)-methanone dihydrochloride] | – | – | – | – | – | – | 1.7 | – | – | – | – |
| O=C(O)CC(O)(CC(=O)O)C(=O)O.O=C(c1ccc(CN2CCOCC2)cc1)N1CCN(C2CCC2)CC1 [Comparative Example 2B, (4-Cyclobutyl-piperazin-1-yl)-(4-morpholin-4-ylmethyl-phenyl)-methanone citrate salt] | 34.8 | 285 ng/mL | 683 ng/mL | 1.33 | 2.89 | 6.41 | 2 | 1.86 | – | – | AUC(0-inf) [2, 5]: 464 ng·h/mL; AUC(0-inf) [2, 7]: 4100 ng·h/mL; CI [2, 9]: 43.2 mL/min/kg; Vd [2, 9]: 10.33 L/kg |
| CC(C)N1CCN(C(=O)c2ccc(CN3CCC(F)CC3)cc2)CC1 [Comparative Example 3, [4-(4-Fluoro-piperidin-1-ylmethyl)-phenyl]-(4-isopropyl-piperazin-1-yl)-methanone] | – | – | – | – | – | – | 2 | – | – | – | – |
| O=C(O)CC(O)(CC(=O)O)C(=O)O.O=C(c1ccc(CN2CCC(F)CC2)cc1)N1CCN(C2CCC2)CC1 [Comparative Example 4B, (4-Cyclobutyl-piperazin-1-yl)-[4-(4-fluoro-piperidin-1-ylmethyl)-phenyl]-methanone citrate salt] | 113 | 460 nM | 480 nM | 0.67 | 3.44 | – | – | 2.08 | 0.41 | 1.28 | Vd ([2]; i.v. 1 mg/kg, citric acid salt): 20.3 L/kg; CI [2, 9]: 1135 mL/min/kg; Vd [2, 9]: 397 L/kg |
| O=C(c1ccc(CN2CCSCC2)cc1)N1CCN(C2CCC2)CC1 [Comparative Example 5, (4-Cyclobutyl-piperazin-1-yl)-(4-thiomorpholin-4-ylmethyl-phenyl)-methanone] | – | – | – | – | – | – | 1 | – | – | – | – |
| O=C(O)CC(O)(CC(=O)O)C(=O)O.O=C(c1ccc(CN2CCSCC2)cc1)N1CCN(C2CCC2)CC1 [Comparative Example 5B, (4-Cyclobutyl-piperazin-1-yl)-(4-thiomorpholin-4-ylmethyl-phenyl)-methanone citrate salt] | 154 | 2680 nM | 70 nM | 0.38 | 0.95 | 17.8 | – | 1.33 | 0.42 | 0.12 | – |
| CC(C)N1CCN(C(=O)c2ccc(CN3CCOC(CO)C3)cc2)CC1 (centres unmarked) [Comparative Example 6B, [4-(2-Hydroxymethyl-morpholin-4-ylmethyl)-phenyl]-(4-isopropyl-piperazin-1-yl)-methanone citratae salt] | 34.9 | 1410 nM | 2960 nM | 0.5 | 4.35 | 7.04 | 5 | 2.36 | 1.34 | 20 | – |
| O=C(O)CC(O)(CC(=O)O)C(=O)O.O=C(c1ccc(CN2CCOCC2)cc1)N1CCN(C2CC2)CC1 [Example 1B, (4-Cyclopropyl-piperazin-1-yl)-(4-morpholin-4-ylmethyl-phenyl) -methanone citrate salt] | 21.6 | 935 ng/mL | 2790 ng/mL | 0.5 | 3.11 | 1.72 | – | 0.92 | – | – | half-life (T1/2) relative to the comparative examples [2]: shorter half-life; volume of distribution (Vd) relative to the comparative examples [2]: lower volume of distribution; AUC(0-inf) [2, 5]: 777 ng·h/mL; AUC(0-inf) [2, 7]: 8720 ng·h/mL; CI [2, 9]: 20.2 mL/min/kg; Vd [2, 9]: 5.45 L/kg; Ki ([3]; Ki (nM)): 6.5 nM |
| O=C(c1ccc(CN2CCC(F)CC2)cc1)N1CCN(C2CC2)CC1 [Example 2, (4-Cyclopropyl-piperazin-1-yl)-[4-(4-fluoro-piperidin-1-ylmethyl)-phenyl]-methanone] | – | – | – | – | – | – | 2 | – | – | – | – |
| O=C(c1ccc(CN2CCSCC2)cc1)N1CCN(C2CC2)CC1 [Example 3, (4-Cyclopropyl-piperazin-1-yl)-(4-thiomorpholin-4-ylmethyl-phenyl) -methanone] | – | – | – | – | – | – | 2.5 | – | – | – | – |
| O=C(O)CC(O)(CC(=O)O)C(=O)O.O=C(c1ccc(CN2CCSCC2)cc1)N1CCN(C2CC2)CC1 [Example 3B, (4-Cyclopropyl-piperazin-1-yl)-(4-thiomorpholin-4-ylmethyl-phenyl) -methanone citrate salt] | 282 | 860 nM | 190 nM | 0.25 | 0.41 | 6.48 | – | 0.27 | 0.18 | 0.18 | half-life (T1/2) relative to the comparative examples [2]: shorter T1/2; volume of distribution (Vd) relative to the comparative examples [2]: lower Vd |
| O=C(c1ccc(CN2CCOC(CO)C2)cc1)N1CCN(C2CC2)CC1 (centres unmarked) [Example 4, (4-Cyclopropyl-piperazin-1-yl)-[4-(2-hydroxymethyl-morpholin-4-ylmethyl)-phenyl]-methanone] | – | – | – | – | – | – | 6 | – | – | – | – |
| O=C(O)CC(O)(CC(=O)O)C(=O)O.O=C(c1ccc(CN2CCOC(CO)C2)cc1)N1CCN(C2CC2)CC1 (centres unmarked) [Example 4B, (4-Cyclopropyl-piperazin-1-yl)-[4-(2-hydroxymethyl-morpholin-4-ylmethyl)-phenyl]-methanone citrate salt] | 15.2 | 2920 nM | 8730 nM | 0.83 | 3.58 | 1.91 | 23 | 1.47 | 3.07 | 33.2 | half-life (T1/2) relative to the comparative examples [2]: shorter T1/2; volume of distribution (Vd) relative to the comparative examples [2]: lower Vd |
